Active and inactive are the calls of the source.
Columns and labels:
[1] = target: T1, Exodeoxyribonuclease V (Escherichia coli (strain K12), UniProt P04993+P07648+P08394); test: E. coli RecBCD inhibitors, dose response, counter-screen for AddAB inhibitor project, absorbance, V66 E. coli, mutant T4 phage (AID 492957); format: functional, cell-based, Escherichia coli str. K-12 substr. MG1655
T1 sequence (P04993 whole entry): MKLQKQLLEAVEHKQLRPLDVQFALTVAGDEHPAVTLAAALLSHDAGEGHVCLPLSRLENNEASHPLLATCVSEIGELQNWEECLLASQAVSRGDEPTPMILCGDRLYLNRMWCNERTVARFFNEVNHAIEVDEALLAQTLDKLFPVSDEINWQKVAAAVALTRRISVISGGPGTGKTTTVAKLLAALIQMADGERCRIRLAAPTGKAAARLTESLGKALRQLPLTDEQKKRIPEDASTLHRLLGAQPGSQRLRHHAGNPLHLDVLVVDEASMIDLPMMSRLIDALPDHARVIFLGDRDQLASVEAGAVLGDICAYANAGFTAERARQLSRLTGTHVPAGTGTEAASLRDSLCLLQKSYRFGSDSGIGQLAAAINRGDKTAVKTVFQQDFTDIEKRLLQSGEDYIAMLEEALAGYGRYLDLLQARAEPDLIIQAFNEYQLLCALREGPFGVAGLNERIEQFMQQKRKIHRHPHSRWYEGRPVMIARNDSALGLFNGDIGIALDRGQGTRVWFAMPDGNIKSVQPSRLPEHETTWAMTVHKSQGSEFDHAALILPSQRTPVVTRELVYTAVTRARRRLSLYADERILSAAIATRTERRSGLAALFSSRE
T1 sequence (P07648 whole entry): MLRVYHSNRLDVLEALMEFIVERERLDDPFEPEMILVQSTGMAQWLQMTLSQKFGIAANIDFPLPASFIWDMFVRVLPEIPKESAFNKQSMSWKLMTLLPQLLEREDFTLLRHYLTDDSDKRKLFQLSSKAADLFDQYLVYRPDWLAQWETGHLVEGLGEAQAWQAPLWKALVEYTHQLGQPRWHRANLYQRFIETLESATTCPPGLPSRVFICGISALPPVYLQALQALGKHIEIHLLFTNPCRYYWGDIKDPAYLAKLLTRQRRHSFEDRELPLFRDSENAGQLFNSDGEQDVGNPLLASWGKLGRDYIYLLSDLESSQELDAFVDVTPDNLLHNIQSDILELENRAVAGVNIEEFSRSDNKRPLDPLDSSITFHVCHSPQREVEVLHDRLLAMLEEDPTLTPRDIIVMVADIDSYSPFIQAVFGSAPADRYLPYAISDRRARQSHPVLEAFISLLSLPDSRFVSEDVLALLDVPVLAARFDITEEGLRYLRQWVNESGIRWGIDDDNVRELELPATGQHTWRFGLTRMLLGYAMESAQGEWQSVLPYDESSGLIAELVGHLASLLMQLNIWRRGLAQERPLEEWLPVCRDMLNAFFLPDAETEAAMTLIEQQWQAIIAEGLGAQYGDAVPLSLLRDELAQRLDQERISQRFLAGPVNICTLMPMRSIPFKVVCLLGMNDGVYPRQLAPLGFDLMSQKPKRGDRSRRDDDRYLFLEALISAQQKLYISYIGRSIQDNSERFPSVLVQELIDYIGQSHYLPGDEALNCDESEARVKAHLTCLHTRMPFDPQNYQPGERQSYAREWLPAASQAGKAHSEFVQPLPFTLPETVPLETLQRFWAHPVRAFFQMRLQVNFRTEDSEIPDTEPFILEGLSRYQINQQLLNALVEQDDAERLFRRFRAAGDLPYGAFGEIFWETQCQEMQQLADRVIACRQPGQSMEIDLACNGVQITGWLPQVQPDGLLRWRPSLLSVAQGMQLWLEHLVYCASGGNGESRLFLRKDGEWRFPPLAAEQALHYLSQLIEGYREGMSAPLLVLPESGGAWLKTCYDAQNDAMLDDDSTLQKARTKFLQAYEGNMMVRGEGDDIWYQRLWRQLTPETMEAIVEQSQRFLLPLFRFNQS
T1 sequence (P08394 whole entry): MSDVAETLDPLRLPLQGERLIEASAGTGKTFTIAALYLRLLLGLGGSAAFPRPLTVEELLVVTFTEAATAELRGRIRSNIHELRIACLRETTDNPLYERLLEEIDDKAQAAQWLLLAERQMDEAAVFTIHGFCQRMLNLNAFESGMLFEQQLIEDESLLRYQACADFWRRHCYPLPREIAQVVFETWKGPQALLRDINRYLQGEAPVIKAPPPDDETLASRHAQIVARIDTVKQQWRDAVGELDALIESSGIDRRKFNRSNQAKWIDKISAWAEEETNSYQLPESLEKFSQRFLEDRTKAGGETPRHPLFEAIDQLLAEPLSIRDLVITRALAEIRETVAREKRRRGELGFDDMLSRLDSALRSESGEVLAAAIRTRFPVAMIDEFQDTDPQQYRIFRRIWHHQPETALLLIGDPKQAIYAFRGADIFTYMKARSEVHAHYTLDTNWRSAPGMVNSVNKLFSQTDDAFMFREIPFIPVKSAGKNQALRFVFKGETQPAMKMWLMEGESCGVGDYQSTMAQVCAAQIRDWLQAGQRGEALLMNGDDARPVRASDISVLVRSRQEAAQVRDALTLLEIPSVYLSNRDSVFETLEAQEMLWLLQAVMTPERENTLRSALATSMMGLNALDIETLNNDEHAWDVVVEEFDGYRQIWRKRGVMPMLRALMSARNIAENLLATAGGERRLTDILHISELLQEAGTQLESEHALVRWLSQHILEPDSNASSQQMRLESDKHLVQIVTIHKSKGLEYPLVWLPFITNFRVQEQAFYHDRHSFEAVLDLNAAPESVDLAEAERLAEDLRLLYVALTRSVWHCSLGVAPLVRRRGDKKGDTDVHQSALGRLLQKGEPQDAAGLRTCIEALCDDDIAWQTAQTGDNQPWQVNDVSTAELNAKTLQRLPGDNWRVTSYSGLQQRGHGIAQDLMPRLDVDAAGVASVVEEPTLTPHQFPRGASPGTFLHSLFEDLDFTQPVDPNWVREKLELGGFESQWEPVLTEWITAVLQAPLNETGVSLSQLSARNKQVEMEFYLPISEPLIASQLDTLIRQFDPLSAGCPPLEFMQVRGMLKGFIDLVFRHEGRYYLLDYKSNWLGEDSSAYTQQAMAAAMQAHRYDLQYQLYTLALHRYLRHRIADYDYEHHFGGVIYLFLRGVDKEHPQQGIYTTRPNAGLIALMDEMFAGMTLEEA

[2] = off-target signal loss in HeLa-CEM21 co-culture – HeLa F-luc CTL cells, cherry-picked, counter-screen for HIV-1 Env fusion inhibitor project, dose response (AID 652040); format: functional, cell-based;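 note: potency for signal decrease marking cytotoxic or nonspecific inhibition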

## CCCC(=O)NC(c1cccs1)c1cc(Cl)c2cccnc2c1O (configuration not stated)
[1]
  IC50: > 119 µM (inactive)
[2]
  AC50: 6.09 µM (active)
